Our source for the Ki values is BindingDB's records for doi:10.1016/0014-2999(88)90158-6 (Pharmakologisches Institut, 1988).

The structures appear in SMILES notation. Some results are limits rather than exact numbers.

One experiment deals with Adenosine receptor A2a (Homo sapiens, UniProt P29274).
The next experiment addresses T1, Adenosine receptor A1 (Rattus norvegicus, UniProt P25099).
T1 sequence (P25099 whole entry): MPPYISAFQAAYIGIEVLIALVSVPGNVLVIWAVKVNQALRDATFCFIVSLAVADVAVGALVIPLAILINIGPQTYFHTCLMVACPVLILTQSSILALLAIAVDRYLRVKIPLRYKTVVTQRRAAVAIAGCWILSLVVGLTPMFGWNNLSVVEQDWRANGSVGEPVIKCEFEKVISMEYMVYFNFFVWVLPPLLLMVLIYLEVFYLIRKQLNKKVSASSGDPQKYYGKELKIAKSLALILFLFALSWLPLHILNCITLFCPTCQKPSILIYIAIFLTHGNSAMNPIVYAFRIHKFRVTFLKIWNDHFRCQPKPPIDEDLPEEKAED

Chain of Adenosine receptor A2a (P29274 whole entry): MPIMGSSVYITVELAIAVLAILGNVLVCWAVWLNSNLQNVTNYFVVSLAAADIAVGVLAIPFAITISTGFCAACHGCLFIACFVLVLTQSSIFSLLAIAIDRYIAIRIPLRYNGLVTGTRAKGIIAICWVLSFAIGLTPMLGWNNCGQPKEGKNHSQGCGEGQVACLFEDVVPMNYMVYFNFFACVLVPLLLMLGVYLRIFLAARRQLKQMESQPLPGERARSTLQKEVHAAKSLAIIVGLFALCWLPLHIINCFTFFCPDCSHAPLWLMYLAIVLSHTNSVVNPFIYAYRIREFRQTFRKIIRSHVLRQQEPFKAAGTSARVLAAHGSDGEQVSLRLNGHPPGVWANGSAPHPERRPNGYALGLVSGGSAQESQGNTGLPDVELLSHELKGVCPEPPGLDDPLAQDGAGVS

For `OC[C@H]1CC[C@H](n2cnc3c(NC4CCCCC4)ncnc32)O1` [alpha-ddCHA], on Adenosine receptor A2a, the inhibition constant Ki (as a rule, the dissociation constant of the complex between target and ligand, obtained from inhibition or displacement) is above 10 µM.

Regarding `OC[C@@H]1CC[C@H](n2cnc3c(NC4CCCCC4)ncnc32)O1` [ddCHA], the Ki was above 10 µM at Adenosine receptor A2a and 4.8 µM on Adenosine receptor A1.
